Data as given in patent publication US20110071178A1, “Methods and Compounds for Modulating Cannabinoid Activity” (Northeastern University, priority 2007, published 2011).

Tests used:
MGL = target: T1, MGL (Rattus norvegicus, UniProt Q8R431); conditions: 100 µM
T1 sequence (Q8R431 1-303): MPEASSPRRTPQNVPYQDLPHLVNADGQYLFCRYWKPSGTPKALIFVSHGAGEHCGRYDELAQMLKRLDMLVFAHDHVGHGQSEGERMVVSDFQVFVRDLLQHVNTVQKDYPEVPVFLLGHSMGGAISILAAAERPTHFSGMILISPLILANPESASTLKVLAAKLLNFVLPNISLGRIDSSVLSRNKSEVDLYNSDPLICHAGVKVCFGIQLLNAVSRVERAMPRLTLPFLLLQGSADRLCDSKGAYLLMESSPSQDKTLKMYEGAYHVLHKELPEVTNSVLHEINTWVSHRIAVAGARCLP

| melting point [°C] | inhibition (MGL) [%] | Compound |
| --- | --- | --- |
| 33 to 35 | – | O=S(=O)(Cl)CCCCCCCc1ccc(OCc2ccccc2)cc1 [Compound 12.1, 7-(4-Benzyloxy-phenyl)-heptanesulfonyl chloride] |
| 58 to 60 | – | O=S(=O)(Cl)CCCCCc1ccc(OCc2ccccc2)cc1 [Compound 12.4, 5-(4-Benzyloxy-phenyl)-pentanesulfonyl chloride] |
| 32 to 35 | – | O=S(=O)(F)CCCCCc1ccc(O)cc1 [Compound 14.4, 5-(4-Hydroxy-phenyl)-pentanesulfonyl fluoride] |
| – | 44 | CCOC(=O)NCc1ccc(Br)cc1 [Compound 57.1] |
